Legend:
[1] = test system: MOLT-4 cells; experiment: Cell viability assay, MTS, 72 h, MOLT-4; type: cell-based; settings: Homo sapiens; MOLT-4 cells, 72 h, MTS
Method: (§1) Cancer cells from different tissue origins including acute lymphoblastic leukemia (MOLT4 and RS4; 11), small cell lung cancer (NCI-H146 or simply H146), and multiple myeloma (EJM and H929) were incubated with increasing concentrations of Examples 1-21 or ABT-263 for 72 h. Cell viability was measured by tetrazolium-based MTS assay. 5×10^4 to 1×10^5 suspension cells or 3×10^3 to 5×10^3 adherent cells were seeded and treated in 96-well plates for 72 h. The EC50 values of individual agents were calculated with GraphPad Prism.

[2] = test system: RS4 cells; experiment: Cell viability assay, MTS, 72 h, RS4;11; type: cell-based; settings: Homo sapiens
Method: as §1

Row | SMILES | IC50 [1] [nM] | IC50 [2] [nM]
1 | Cc1ncsc1-c1ccc([C@H](C)NC(=O)[C@@H]2C[C@@H](O)CN2C(=O)[C@@H](NC(=O)COCCOCCOCCOCC(=O)NCC2(C)CCC(c3ccc(Cl)cc3)=C(CN3CCN(c4ccc(C(=O)NS(=O)(=O)c5ccc(N[C@H](CCN6CCOCC6)CSc6ccccc6)c(S(=O)(=O)C(F)(F)F)c5)cc4)CC3)C2)C(C)(C)C)cc1 (stereo partly drawn) [Compound 59, N^1-((4′-chloro-4-methyl-6-((4-(4-(((4-(((R)-4-morpholino-1-(phenylthio)butan-2-yl)amino)-3-((trifluoromethyl)sulfonyl)phenyl)sulfonyl)carbamoyl)phenyl)piperazin-1-yl)methyl)-2,3,4,5-tetrahydro-[1,1′-biphenyl]-4-yl)methyl)-N^14—((S)-1-((2S,4R)-4-hydroxy-2-(((S)-1-(4-(4-methylthiazol-5-yl)phenyl)ethyl)carbamoyl)pyrrolidin-1-yl)-3,3-dimethyl-1-oxobutan-2-yl)-3,6,9,12-tetraoxatetradecanediamide] | 973 | 404
2 | Cc1ncsc1-c1ccc([C@H](C)NC(=O)[C@@H]2C[C@@H](O)CN2C(=O)[C@@H](NC(=O)COCCOCCOCCOCCOCC(=O)NCC2(C)CCC(c3ccc(Cl)cc3)=C(CN3CCN(c4ccc(C(=O)NS(=O)(=O)c5ccc(N[C@H](CCN6CCOCC6)CSc6ccccc6)c(S(=O)(=O)C(F)(F)F)c5)cc4)CC3)C2)C(C)(C)C)cc1 (stereo partly drawn) [Compound 60, N^1-((4′-chloro-4-methyl-6-((4-(4-(((4-(((R)-4-morpholino-1-(phenylthio)butan-2-yl)amino)-3-((trifluoromethyl)sulfonyl)phenyl)sulfonyl)carbamoyl)phenyl)piperazin-1-yl)methyl)-2,3,4,5-tetrahydro-[1,1′-biphenyl]-4-yl)methyl)-N^17—((S)-1-((2S,4R)-4-hydroxy-2-(((S)-1-(4-(4-methylthiazol-5-yl)phenyl)ethyl)carbamoyl)pyrrolidin-1-yl)-3,3-dimethyl-1-oxobutan-2-yl)-3,6,9,12,15-pentaoxaheptadecanediamide] | 1410 | 758
3 | CC1(CNC(=O)CCCCCNc2cccc3c2C(=O)N(C2CCC(=O)NC2=O)C3=O)CCC(c2ccc(Cl)cc2)=C(CN2CCN(c3ccc(C(=O)NS(=O)(=O)c4ccc(N[C@H](CCN5CCOCC5)CSc5ccccc5)c(S(=O)(=O)C(F)(F)F)c4)cc3)CC2)C1 (stereo partly drawn) [Compound 62, 4-(4-((4′-chloro-4-((6-((2-(2,6-dioxopiperidin-3-yl)-1,3-dioxoisoindolin-4-yl)amino)hexanamido)methyl)-4-methyl-3,4,5,6-tetrahydro-[1,1′-biphenyl]-2-yl)methyl)piperazin-1-yl)-N-((4-(((R)-4-morpholino-1-(phenylthio)butan-2-yl)amino)-3-((trifluoromethyl)sulfonyl)phenyl)sulfonyl)benzamide] | 36 | 33

Reference: patent US20220169628A1 (University of Florida Research Foundation, Incorporated, priority 2019, published 2022)
